Results taken from patent publication US5049673A, “Fluorescent indicator dyes for calcium working at long wavelengths” (The Regents of the University of California, priority 1987, dated 1991).
Like-named read-outs stand apart in the source and are kept apart here.

What was measured:
[1] = Absorbance and fluorescence properties in the presence and absence of Ca2+; assay type: physicochemical
Description: FIG. 4. Excitation (A) and emission (B) spectra for fluo-3 at 22°±2° C. in buffers with free Ca^2+ values ranging from <1 nM to 58 microM. The titration was done starting with 3.5 ml of 100 mM KCl, 10 mM K-MOPS, 10 mM K2 H2 EGTA, 15 microM fluo-3, pH 7.03. The "O" Ca spectrum was recorded, then to reach n mM CaEGTA, (10-n) mM EGTA, n=1-10, aliquots of 3.5/(11-n) ml were iteratively discarded and replaced by equal volumes of 100 mM KCl, 10 mM K-MOPS, 10 mM K2 CaEGTA, 15 microM fluo-3, pH 7.0. After each iteration the pH (range 6.99 to 7.05) and spectra were recorded; each spectrum is labeled by the calculated free Ca^2+ in micromolar. The excitation and emission bandwidths were 1.9 nm and 4.6 nm respectively. All spectra have been normalized with respect to the peak of the 58 microM (n=10) curve. In A, emission was collected at 530 nm, and the excitation was corrected for lamp and monochromator characteristics using a rhodamine B quantum counter. In B, excitation was at 490 nm, and the emission spectrum is uncorrected for monochromator and detector sensitivity. The slightly low amplitude of the curve at 3.6 microM [Ca^2+ ] is probably due to a small error in resetting the excitation monochromator to 490 nm.
(§1) FIG. 6. The product of fluorescence quantum efficiency and extinction coefficient vs. free [Ca^2+ ] (note log axes for both) for quin-2, fura-2, indo-1, rhod-2, and fluo-3. All data are for room temperature, 0.1 M KCl, no added Mg^2+. […] The curve for fluo-3 used the data of Table I with extinction coefficients of 7.5×10^4 to 8.35×10^4 at 506 nm; the curve for rhod-2 assumed a Ca^2+ -independent extinction coefficient of 1×10^5 M^-1 cm^-1.
Examples of the synthetic routes than can be used to produce the new dyes of the present invention are outlined in FIGS. 2 and 3. Full descriptions of the reaction conditions are described below under the section entitled Compound Synthesis. Optical spectra were measured as described by Grynkiewicz, et al. (1985). (See ref. 9.) Quantum efficiencies of fluorescence were obtained (see ref. 10) by comparing the integral of the corrected emission spectrum of the test sample with that of a solution of rhodamine B in ethanol, quantum efficiency assumed to be 0.97 (see ref. 11), or fluorescein in 0.1 M NaOH, quantum efficiency 0.91 (see ref. 10). The concentration of the reference dye was adjusted to match the absorbance of the test sample at the wavelength of excitation.
The absorbance and fluorescence properties for the new indicators in the presence and absence of Ca^2+ are shown in Table I. The absorbance spectra were much as one would expect for rhodamine or fluorescein chromophores, though extinction coefficients (not shown) were often low in the dyes as initially isolated. Because fluo-3 appeared to be a very useful indicator compound, extra effort was expended in its purification. Eventually, quite respectable extinction coefficients were obtained, 7.9×10^4 and 8.3×10^4 M^-1 cm^-1 at 503 and 506 nm, respectively for free and Ca^2+ -bound fluo-3. Ca^2+ binding was expected to shift the absorbance maxima to longer wavelengths,since it would prevent the BAPTA amino nitrogen from donating electron density to the 9-position of the xanthene. Electron-withdrawal and donation to the central carbon of triphenylmethane dyes are known to shift absorbance peaks to longer and shorter wavelengths, respectively (see ref. 19). Indeed, Ca^2+ binding caused red shifts, but of very small magnitude, 1-3 nm, and with little change in peak height.
Fluo-3 has a visibly pinkish tinge because its chlorine atoms shift its spectra to wavelengths slightly longer than those of fluo-2, just as 2,7-dichlorofluorescein is bathochromically shifted from fluorescein. […] Thus the Ca^2+ complex of fluo-3 fluoresced 35- to 40-fold more brightly than the Ca^2+ -free dye (see FIG. 4). This degree of enhancement is the greatest yet reported for a fluorescent Ca^2+ indicator. […]

[2] = Photochemical stability, xenon arc illumination of air-saturated solutions; assay type: physicochemical
Description: Fluo-3 was briefly checked for photochemical stability. […] Since the biological usability of fluorescein is well established, the photochemical resistance of fluo-3 would seem to be adequate if not outstanding.

[3] = Product of fluorescence quantum efficiency and extinction coefficient vs free [Ca2+] (FIG. 6); assay type: physicochemical
Description: as §1
Whereas fura-2 and indo-1 were clearly much more intensely fluorescent than quin-2, enabling measurements with much less added dye and Ca^2+ buffering, comparison of the brightness of the new dyes with that of fura-2 and indo-1 is more complex of the different operating wavelengths. The simplest measure of the intrinsic brightness of a fluorophore is the product of its emission quantum efficiency and its extinction coefficient at the appropriate excitation wavelength (see FIG. 6). At the present time, extinction coefficients are known only for fluo-3, though one may estimate the values for the other indicators from purified model xanthene dyes (9-10×10^4 M^-1 cm^31 1). For fluo-3, the quantum efficiency×extinction coefficient ranges from 3×10^3 to 1.5×10^4 M^-1 cm^-1 for Ca^2+ values from 10^-7 M up to saturation, slightly less than the corresponding values for fura-2 excited at 340 nm, 5×10^3 to 1.6× 10^4 M^-1 cm^-1 (see FIG. 6). However, it is easier to generate higher excitation intensities at longer wavelengths, and autofluorescence will be lower, so the actual concentrations of dye needed to overcome dark current and autofluorescence may be fairly similar for the two families. On the other hand, the relatively small separation between excitation and emission peaks of the new dyes makes more stringent demands on monochromators and filters to exclude scattered light.
The Ca^2+ affinities of the new dyes are two to ten-fold weaker than those of their UV-excited predecessors. […]

[4] = Mg2+ dissociation constant in Mg2+/EGTA buffers
Description: Free [Mg2+] was controlled by Mg^2+ /EGTA buffers assuming an apparent dissociation constant for the Mg^2+ /EGTA complex (including its monoprotonated form) of 6 mM at pH 7.60, 0.12 M ionic strength, 20°, as calculated from the data of Martell & Smith (see ref. 12).

[5] = for Kd: read-out: Effective dissociation constant Kd for Ca^2+, pH 7.0-7.5, ionic strengths 0.1-0.15
Description: For measurement of Ca^2+ dissociation constants at pH 7.0-7.5, free [Ca^2+ ] levels were controlled by Ca^2+ /EGTA, Ca^2+ /HEEDTA and Ca^2+ /NTA buffers (see ref. 12) The apparent dissociation constant for the Ca^2+ EGTA complex was taken as 327 nM at pH 7.03 in 100 mM KCl, 20° C. The logarithms of the apparent dissociation constants for the Ca^2+ HEEDTA and Ca^2+ NTA complexes were calculated to be 1.70 - pH and 3.41 - pH, respectively, at room temperature in 0.1 M KCl. To test the pH dependence of the apparent Ca^2+ -dissociation constant of fluo-3 (see FIG. 4), it was necessary to vary pH from 5.6 to 8 while maintaining constant free Ca^2+. EGTA, HEEDTA, and NTA are too pH-dependent to cover this pH range, so dibromo-BAPTA (chelator 2c of ref 13) was used instead. […] To compensate for that small dependence, the pH titration was started from pH 5.6 with the appropriate amount of Ca^2+ in the buffer. Then, at each higher pH, the appropriate small addition of CaCl2 was made to compensate for the increase in the effective Ca^2+ affinity of the dibromo-BAPTA.

[6] = cited from earlier work
[7] = cited from earlier work; for Kd: room temperature, 0.1 M KCl, no added Mg^2+, read-out: Ca^2+ dissociation constant (Kd) used for FIG. 6
[8] = parent compounds, literature; read-out: Ca^2+ dissociation constant of parent compounds; cited from earlier work

Cc1ccc(N(CC(=O)O)CC(=O)O)c(OCCOc2cc(-c3c4cc(Cl)c(=O)cc-4oc4cc(O)c(Cl)cc34)ccc2N(CC(=O)O)CC(=O)O)c1 [fluo-3, 9-(4-bis(carboxymethyl)amino-3-(2-(2-bis(carboxymethyl)amino-5-methylphenoxy)ethoxy)phenyl)-2,7-dichloro-6-hydroxy-3 H-xanthen-3-one]
Extinction coefficient, free dye ([1]; 503 nm, free): 79000 M⁻¹ cm⁻¹
Extinction coefficient, Ca^2+-bound dye ([1]; 506 nm, Ca^2+-bound): 83000 M⁻¹ cm⁻¹
Fluorescence enhancement, Ca^2+ complex vs Ca^2+-free dye ([1]; Ca^2+ complex vs free dye): 40 fold
Fluorescence maxima, emission, with excess Ca [1]: 526 nm
Fluorescence maxima, excitation, with excess Ca [1]: 506 nm
Fluorescence quantum efficiency, excess Ca [1]: .183
Fluorescence ratio, excess vs. zero Ca [1]: 36-40
Fluorescence quantum efficiency, zero Ca [1]: .0051
Photobleaching rate, Ca^2+ complex ([2]; Ca^2+ complex): bleached about half as quickly
Photobleaching rate, Ca^2+-free ([2]; Ca^2+-free): bleached at about the same rate as ordinary fluorescein anion
[Ca^2+] giving double the fluorescence at zero [Ca^2+] [3]: 11 nM
Conversion to Ca^2+ complex at 11 nM [Ca^2+] ([3]; 11 nM [Ca^2+]): 2.5%
Brightness of Ca^2+ complex relative to free dye (in words) ([3]; Ca^2+ complex vs free dye): forty-fold brighter
Amino pKa, independent rough confirmation from intermediate [Ca^2+] curves (100 mm kcl, tris-mops): about 6.2
pKa of amino nitrogen (100 mm kcl, tris-mops): about 6.2
pKa of chromophore (absorbance spectrum or fluorescence amplitude of Ca^2+-complex) (100 mm kcl, tris-mops): 4.5-4.6
Increase of fluorescence of Ca^2+-free dye, pH 8 to pH 5 (Ca^2+-free, maximal): ≤ 3 fold
Effectiveness of intermediate Ca^2+ at enhancing fluorescence at pH 6.1-6.2 vs pH ~8 (pH about 6.1-6.2 vs pH ~8): about half as effective
Effect of Mg^2+ binding on chelator fluorescence [4]: relatively little effect
Fluorescence enhancement by Mg^2+ binding ([4]; Mg^2+ binding): about 1.4 fold
Kd ([4]; read-out: Mg^2+ dissociation constant, 25°, 0.1-0.15 M ionic strength): 9000 µM
Effect of added chlorines on Ca^2+ affinity [5]: very little effect
Kd [5]: 0.45 µM

Cc1ccc(N(CC(=O)O)CC(=O)O)c(OCCOc2cc(-c3c4ccc(=O)cc-4oc4cc(O)ccc34)ccc2N(CC(=O)O)CC(=O)O)c1 [fluo-2, 9-(4-bis(carboxymethyl)amino-3-(2-(2-bis(carboxymethyl)amino-5-methylphenoxy)ethoxy)phenyl)-6-hydroxy-3H-xanthen-3-one]
Fluorescence maxima, emission, with excess Ca [1]: 518 nm
Fluorescence maxima, excitation, with excess Ca [1]: 493 nm
Fluorescence quantum efficiency, excess Ca [1]: .125
Fluorescence ratio, excess vs. zero Ca [1]: 31
Fluorescence quantum efficiency, zero Ca [1]: .004
Fluorescence quenching on titration from pH 7.7 to 4.1 (absence of Ca^2+): almost completely quenched
Ratio between the brightness of the deprotonated and the protonated species (absence of Ca^2+): 67
Kd [5]: 0.37 µM

O=C1OC2(c3ccc(O)cc3Oc3cc(O)ccc32)c2ccccc21 [fluorescein]
Quantum efficiency of reference dye in 0.1 M NaOH ([6]; 0.1 M NaOH): 0.91

Cc1ccc(N(CC(=O)O)CC(=O)O)c(OCCOc2cc(-c3cc4ccc(C(=O)O)cc4[nH]3)ccc2N(CC(=O)O)CC(=O)O)c1 [indo-1]
Kd [7]: 0.25 µM

O=C(O)CN(CC(=O)O)c1ccccc1OCCOc1ccccc1N(CC(=O)O)CC(=O)O [BAPTA, 1,2-bis(2-amino-phenoxy)ethane N,N,N',N'-tetraacetic acid]
Kd [8]: 0.11 µM

COc1cc(N(CC(=O)O)CC(=O)O)c2nc(COc3cc(C)ccc3N(CC(=O)O)CC(=O)O)ccc2c1 [quin-2, 2-[[2-[bis(carboxymethyl)amino]-5-methylphenoxy]-6-methoxy-8-bis(carboxymethyl)amino]quinolline]
Extinction coefficient at 339 nm ([7]; 339 nm, independent of Ca^2+): 4600 M⁻¹ cm⁻¹
Kd [7]: 0.078 µM

O=c1ccc2c(-c3ccccc3)c3ccc(O)cc3oc-2c1 [9-phenylfluorone]
Quantum efficiency of model compound [6]: 0.21

CCN(CC)c1ccc2c(-c3ccccc3C(=O)O)c3ccc(=[N+](CC)CC)cc-3oc2c1 [rhodamine B]
Quantum efficiency of reference dye in ethanol ([6]; in ethanol): 0.97

Cc1ccc(N(CC(=O)O)CC(=O)O)c(OCCOc2cc(-c3c4ccc(=O)cc-4oc4cc(O)ccc34)c(O)cc2N(CC(=O)O)CC(=O)O)c1 [fluo-1, 9-(6-hydroxy-4-bis(carboxymethyl)amino-3-(2-(2-bis(carboxymethyl)amino-5-methylphenoxy)ethoxy)phenyl)-6-hydroxy-3H-xanthen-3-one]
Fluorescence maxima, emission, with excess Ca [1]: 521 nm
Fluorescence maxima, excitation, with excess Ca [1]: 499 nm
Fluorescence quantum efficiency, excess Ca [1]: .014
Fluorescence ratio, excess vs. zero Ca [1]: 3.3
Fluorescence quantum efficiency, zero Ca [1]: .0042
pH dependence of fluorescence: some pH dependence
Kd [5]: 0.7 µM
Lowering of Ca^2+ affinity by hydroxy group vs unsubstituted rhod-2 and fluo-2 ([5]; vs rhod-2 and fluo-2): more than two-fold

Cc1ccc(N(CC(=O)O)CC(=O)O)c(OCCOc2cc(-c3c4ccc(=[N+](C)C)cc-4oc4cc(N(C)C)ccc34)ccc2N(CC(=O)O)CC(=O)O)c1 [rhod-2]
Fluorescence maxima, emission, with excess Ca [1]: 576 nm
Fluorescence maxima, excitation, with excess Ca [1]: 553 nm
Fluorescence quantum efficiency, excess Ca [1]: .102
Fluorescence ratio, excess vs. zero Ca [1]: 3.4
Fluorescence quantum efficiency, zero Ca [1]: .03
Kd [5]: 1 µM
